# Read-outs that look alike come from different tables or passages of the source.
# Assays:
# Jurkat cells = experiment: Cell viability / growth inhibition (EZ-Cytox), Jurkat; type: cell-based; settings: Homo sapiens, Table 2, 72 h
# Protocol: (§1) MV-4-11 human acute myeloid leukemia cells were purchased from the American Type Culture Collection (ATCC, Rockville, MD, USA, CRL-9591), and the cells were cultured in IMDM medium (Sigma Co., St. Louis, MO, USA) supplemented with 10% fetal bovine serum, 1% penicillin/streptomycin and 4 mM L-glutamine (Life Technology, Grand Island, NY). Jurkat (human acute T lymphocytic leukemia, ATCC TIB-152) and K562 (human chronic myelogenous leukemia, ATCC CCL-243) cells were cultured in RPMI-1640 (Sigma Co.), and MCF7 (human breast adenocarcinoma, ATCC HTB-22) and PC-3 (human prostate adenocarcinoma, ATCC CRL-1435) cells were cultured in DMEM (Sigma Co.) medium supplemented with 10% fetal bovine serum and 1% penicillin/streptomycin. The cultured cells were incubated at 37°C with 5% CO2. Cell viability was assessed with a tetrazolium-based assay using the EZ-Cytox Cell Viability Assay kit (DaeilLab, Korea). Briefly, 2,000 ∼ 15,000 cells were plated in 96-well flat bottom plates in 100 µl of medium. The next day, the cells were treated with compounds along with dimethyl sulfoxide (DMSO, Fisher, Waltham, MA, USA) as a negative control. […] After incubation, the optical density (OD) was measured at a wavelength of 450 nm with a Victor multilabel reader (Perkin Elmer, Waltham, MA, USA). The IC50 was calculated with nonlinear regression using Prism version 5.01 (GraphPad, La Jolla, CA, USA).
# [1] = system: PARP cleavage in MV-4-11 cells; experiment: PARP cleavage western blot; type: cell-based, human; settings: MV-4-11, 24 h
# Protocol: Cells were lysed in SDS Lysis buffer (12 mM Tris-Cl, pH 6.8, 5% glycerol, and 0.4% SDS), and the protein concentrations were measured with the SMART BCA Protein Assay kit (iNtRON Biotechnology, Korea). The proteins were resolved with SDS-polyacrylamide gel electrophoresis followed by transfer to PVDF membranes (Millipore, Billerica, MA, USA) and incubated overnight with the appropriate antibodies. The antibodies used were as follows: phospho-STAT5 (p-STAT5; rabbit polyclonal IgG; #9351, 1:1,000), cyclin D1 (rabbit polyclonal IgG; #2922, 1:1,000), and PARP (rabbit polyclonal IgG; #9542, 1:1,000) from Cell Signaling Technology (Danver, MA, USA), STAT5 (rabbit polyclonal IgG; #sc-835, 1:1,000) from Santa Cruz (Santa Cruz, CA, USA), and β-actin (mouse monoclonal IgG; # A5441, 1:5000) from Sigma-Aldrich. Goat anti-rabbit IgG (#111-035-003; 1;5,000) and anti-mouse IgG (#115-035-033; 1:5,000) secondary antibodies were obtained from Jackson ImmunoResearch Laboratories, Inc. (West Grove, PA, USA).
# PC-3 cells = experiment: Cell viability / growth inhibition (EZ-Cytox), PC-3; type: cell-based; settings: Homo sapiens, Table 2, 72 h
# Protocol: as §1
# cellular senescence = experiment: Senescence-associated β-galactosidase assay (SA-β-gal); type: cell-based; settings: data not shown
# JAK2 = JAK2 (Homo sapiens, UniProt O60674); experiment: In vitro JAK2 kinase assay (HTRF); type: biochemical; settings: mean ± S.D.
# Protocol: (§2) The inhibition of the FLT3 kinase activity was measured with homogeneous, time-resolved fluorescence (HTRF) assays. Recombinant proteins containing the FLT3 kinase domain were purchased from Carna biosciences (Japan). Optimal enzyme, ATP, and substrate concentrations were established with the HTRF KinEASE kit (Cisbio, France) according to the manufacturer’s instructions. The FLT3 enzymes were mixed with serially diluted compounds and peptide substrates in a kinase reaction buffer (50 mM HEPES (pH 7.0), 500 μM ATP, 0.1 mM sodium orthovanadate, 5 mM MgCl2, 1 mM DTT, 0.01% bovine serum albumin (BSA), and 0.02% NaN3). After the addition of the reagents for detection, the TR-FRET signal was measured with a Victor multilabel reader (Perkin Elmer, Waltham, MA, USA). The IC50 was calculated with nonlinear regression using Prism version 5.01 (GraphPad). JAK2, JAK3, cMET, and RET in vitro kinase assays were also carried out using the HTRF assay kit.
# K562 cells = experiment: Cell viability / growth inhibition (EZ-Cytox), K562; type: cell-based; settings: Homo sapiens, Table 2, 72 h
# Protocol: as §1
# FLT3 = molecular target: T1, FLT3 (Homo sapiens, UniProt P36888); experiment: In vitro FLT3 kinase assay (HTRF); type: biochemical
# T1 construct: Recombinant proteins containing the FLT3 kinase domain were purchased from Carna biosciences (Japan); purchased Carna biosciences (Japan)
# T1 sequence (P36888 610-943 limits assumed): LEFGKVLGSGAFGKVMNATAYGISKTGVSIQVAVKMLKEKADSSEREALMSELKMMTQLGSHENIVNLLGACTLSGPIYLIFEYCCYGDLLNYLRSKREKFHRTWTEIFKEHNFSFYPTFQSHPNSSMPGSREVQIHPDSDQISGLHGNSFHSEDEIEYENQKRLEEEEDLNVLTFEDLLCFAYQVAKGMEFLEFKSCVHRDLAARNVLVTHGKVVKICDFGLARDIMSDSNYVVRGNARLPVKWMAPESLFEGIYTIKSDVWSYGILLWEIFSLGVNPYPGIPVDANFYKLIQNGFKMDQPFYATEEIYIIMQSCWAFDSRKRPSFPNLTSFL
# Protocol: as §2, with “The IC50 was calculated with nonlinear regression using Prism version 5.01 (GraphPad).” left out
# JAK2, sequence (O60674 whole entry, species assumed, the tested form may be a part): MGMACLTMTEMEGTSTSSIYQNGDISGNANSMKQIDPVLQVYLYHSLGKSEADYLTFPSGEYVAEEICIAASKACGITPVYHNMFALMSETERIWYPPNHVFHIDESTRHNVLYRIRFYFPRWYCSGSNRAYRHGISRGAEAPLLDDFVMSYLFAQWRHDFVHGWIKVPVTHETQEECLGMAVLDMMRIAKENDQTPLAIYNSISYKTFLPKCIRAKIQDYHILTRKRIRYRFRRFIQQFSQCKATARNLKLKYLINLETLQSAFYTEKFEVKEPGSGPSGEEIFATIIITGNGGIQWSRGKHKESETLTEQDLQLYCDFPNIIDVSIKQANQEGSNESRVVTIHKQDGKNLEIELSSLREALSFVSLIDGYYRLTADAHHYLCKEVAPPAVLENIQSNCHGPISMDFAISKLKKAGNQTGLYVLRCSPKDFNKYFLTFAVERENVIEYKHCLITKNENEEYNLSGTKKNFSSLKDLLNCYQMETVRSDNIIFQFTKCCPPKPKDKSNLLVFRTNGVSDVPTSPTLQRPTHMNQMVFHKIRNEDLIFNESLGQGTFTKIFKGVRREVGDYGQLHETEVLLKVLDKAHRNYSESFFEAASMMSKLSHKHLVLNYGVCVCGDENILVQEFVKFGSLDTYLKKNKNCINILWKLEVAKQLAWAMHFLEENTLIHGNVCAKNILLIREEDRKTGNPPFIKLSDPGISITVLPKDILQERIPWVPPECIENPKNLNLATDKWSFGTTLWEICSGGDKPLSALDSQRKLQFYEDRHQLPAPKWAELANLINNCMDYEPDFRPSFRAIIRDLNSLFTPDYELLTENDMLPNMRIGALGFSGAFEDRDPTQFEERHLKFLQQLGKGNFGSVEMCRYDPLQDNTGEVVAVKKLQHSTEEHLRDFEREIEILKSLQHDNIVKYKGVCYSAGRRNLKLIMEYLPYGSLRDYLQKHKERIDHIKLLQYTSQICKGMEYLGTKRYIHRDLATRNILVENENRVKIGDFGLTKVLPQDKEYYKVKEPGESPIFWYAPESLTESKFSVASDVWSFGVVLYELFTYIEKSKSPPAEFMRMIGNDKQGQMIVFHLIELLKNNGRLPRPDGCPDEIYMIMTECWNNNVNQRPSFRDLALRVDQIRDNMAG
smiles,measurement,setting,value
"COC(=O)c1ccc2c(c1)/C(=C1/Nc3ccccc3/C1=N\OCCN1CCNCC1)C(=O)N2.Cl.Cl [LDD1937, methyl (2Z,3E)-2′-oxo-3-((2-(piperazin-1-yl)ethoxy)imino)-[2,3′-biindolinylidene]-5′-carboxylate dihydrochloride]",GI50,Jurkat cells,1440 ± 290 nM
same,cleaved PARP,[1]; 1 nM,an increase in the cleaved PARP was detected
same,PARP cleavage,[1]; western blot,induced PARP cleavage in a dose-dependent manner
same,GI50,PC-3 cells,1100 ± 140 nM
same,SA-β-gal (cellular senescence),cellular senescence,did not change
same,IC50,JAK2,523 ± 72.7 nM
same,GI50,K562 cells,1210 ± 330 nM
same,IC50,"FLT3; Table 1, mean ± S.D., read-out: IC50 FLT3",3 ± 0.525 nM
same,IC50,"FLT3; recombinant FLT3, HTRF, read-out: IC50 FLT3 kinase activity",3 ± 0.53 nM

# From PMC5787524, “Discovery of a FLT3 inhibitor LDD1937 as an anti-leukemic agent for acute myeloid leukemia” (Oncotarget, 2017)
